Source: US11964021B2, “Bacterially derived, intact minicells for delivery of therapeutic agents to brain tumors” (EnGeneIC Molecular Delivery Pty Ltd, priority 2011, dated 2024)

Legend:
[1] = kinetics, FIG. 2A of MacDiarmid et al. Cancer Cell (2007); cited from earlier work
[2] = tested on: human brain tumor cell line U87-MG; assay: MTS cell proliferation assay, doxorubicin sensitivity, human cells; type: cell-based; details: 1.7 nM to 8,600 nM, 72 hours
Protocol: (§1) Canine brain tumor cells BCD-1, -8, -9 and J3T and human brain tumor cell line U87-MG were seeded into 96 well plates at 5×10^3 cells per well. Cells were incubated overnight at 37° C., 5% CO2.
(§2) Doxorubicin was added to cells in […], of relevant media containing serum at concentrations ranging from 1.7 nM to 8,600 nM and incubated for 72 hours.
(§3) To measure the cytotoxic effect of Doxorubicin an MTS cell proliferation assay was performed. To each well 20 uL of MTS solution (CellTitre 96® Aqueous One MTS reagent—Promega) was added and incubated in the dark for 30 minutes. Absorbance was read at a wavelength of 490 nm. Data was analysed in Prism GraphPad (La Jolla, CA, USA) using non-linear regression and a 4-parameter curve fit.

[3] = tested on: Canine brain tumor cells BCD-1, -8, -9 and J3T; assay: MTS cell proliferation assay, doxorubicin sensitivity, canine cells; type: cell-based; details: 1.7 nM to 8,600 nM, 72 hours
Protocol: as §1, §2, §3

| Compound | leakage of drug out of intact minicells once packaged [1] | sensitivity of cells to doxorubicin [2] | sensitivity of cells to doxorubicin [3] |
| --- | --- | --- | --- |
| N.N.[Cl][Pt][Cl] [cisplatin, Cisplatin] | did not leak out |  |  |
| COc1cccc2c1C(=O)c1c(O)c3c(c(O)c1C2=O)C[C@@](O)(C(=O)CO)C[C@@H]3O[C@H]1C[C@H](N)[C@H](O)[C@H](C)O1 [doxorubicin, Doxorubicin] | did not leak out | equally sensitive | equally sensitive |
